The values below come from doi:10.1101/2021.10.07.463234v2 (biorxiv, 2021).

Structures can show the parent of a compound that is named as a salt.

The experiment concerns the target SARS-CoV-2 Mac1 (Severe acute respiratory syndrome coronavirus 2, UniProt P0DTD1). The experiment in a line: biochemical. Conditions: for inhibition at 100 µM: read-out: %inhibition; for %inhibition: 100 µM, inhibitor.

In the case of `CCN[C@@H]1C[C@H](N)[C@@H](O[C@H]2OC(CN)=CC[C@H]2N)[C@H](O)[C@H]1O[C@H]1OC[C@](C)(O)[C@H](NC)[C@H]1O` [Netilmicin Sulfate], the inhibition at 100 µM turned out to be 0%.
With `Cc1ccccc1-c1cc(N2CCN(C)CC2)ncc1N(C)C(=O)C(C)(C)c1cc(C(F)(F)F)cc(C(F)(F)F)c1` [Netupitant], the inhibition at 100 µM was 6.47%.
Consider `Cc1ccnc2c1NC(=O)c1cccnc1N2C1CC1` [Nevirapine], for which the inhibition at 100 µM worked out at 20.6%.
In the case of `O=C(CCNNC(=O)c1ccncc1)NCc1ccccc1` [Nialamide], the inhibition at 100 µM was found to be 25%.
Same read-out and setting: the value for `COC(=O)C1=C(C)NC(C)=C(C(=O)OCCN(C)Cc2ccccc2)C1c1cccc([N+](=O)[O-])c1` (stereo not shown) [Nicardipine] was 0%; that for `O=C(NCCO[N+](=O)[O-])c1cccnc1` [Nicorandil] was 15.7%; that for `NC(=O)c1cccnc1` [Nicotinamide (Vitamin B3)] was 16%.
On to `CN1CCC[C@H]1c1cccnc1` [Nicotine Ditartrate], for which the inhibition at 100 µM turned out to be 0%.
With `O=C(O)c1cccnc1` [Nicotinic Acid], the inhibition at 100 µM turned out to be 28.8%.
As for `COC(=O)C1=C(C)NC(C)=C(C(=O)OC)C1c1ccccc1[N+](=O)[O-]` [Nifedipine], the inhibition at 100 µM was 16%.
On the same count and under the same terms, the value for `Cc1c(NC(=O)c2cccnc2)c(=O)n(-c2ccccc2)n1C` [Nifenazone] was 3.55%; that for `O=C(O)c1cccnc1Nc1cccc(C(F)(F)F)c1` [Niflumic acid] was 11%; that for `O=C(N/N=C/c1ccc([N+](=O)[O-])o1)c1ccc(O)cc1` [Nifuroxazide] was 0.953%.
Still for that read-out and setting: the value for `CCN(CC)C(=O)c1cccnc1` [Nikethamide] was 0%.
On to `Cc1cn(-c2cc(NC(=O)c3ccc(C)c(Nc4nccc(-c5cccnc5)n4)c3)cc(C(F)(F)F)c2)cn1` [Nilotinib (AMN-107)], for which the “%inhibition” value is 40.49%.
The same measure, in the same setting: to `Cc1cn(-c2cc(NC(=O)c3ccc(C)c(Nc4nccc(-c5cccnc5)n4)c3)cc(C(F)(F)F)c2)cn1` [Nilotinib hydrochloride] belongs 3.764%.
As to `CC1(C)NC(=O)N(c2ccc([N+](=O)[O-])c(C(F)(F)F)c2)C1=O` [Nilutamide], the inhibition at 100 µM was 3.89%.
For the molecule `COC(=O)C1=C(C#N)NC(C)=C(C(=O)OC(C)C)C1c1cccc([N+](=O)[O-])c1` (stereo not shown) [Nilvadipine], the inhibition at 100 µM was 0%.
On to `CS(=O)(=O)Nc1ccc([N+](=O)[O-])cc1Oc1ccccc1` [Nimesulide], for which the inhibition at 100 µM was determined as 0%.
The same measure, in the same setting: to `COCCOC(=O)C1=C(C)NC(C)=C(C(=O)OC(C)C)C1c1cccc([N+](=O)[O-])c1` (stereo not shown) [Nimodipine] belongs 21.8%.
`Cc1ncc(CNC(=O)N(CCCl)N=O)c(N)n1` [Nimustine Hydrochloride]: the inhibition at 100 µM came to 0%.
For the molecule `COC(=O)c1ccc2c(C(=Nc3ccc(N(C)C(=O)CN4CCN(C)CC4)cc3)c3ccccc3)c(O)[nH]c2c1` [Nintedanib (BIBF 1120)], the “%inhibition” value is 17.91%.
Still for that read-out and setting: to `COC(=O)c1ccc2c(C(=Nc3ccc(N(C)C(=O)CN4CCN(C)CC4)cc3)c3ccccc3)c(O)[nH]c2c1` [Nintedanib Ethanesulfonate Salt] belongs 8.812%.
Regarding `NC(=O)c1cccc2cn(-c3ccc([C@@H]4CCCNC4)cc3)nc12` [Niraparib (MK-4827) tosylate], the “%inhibition” value is 14.33%.
The same measure, in the same setting: the value for `NC(=O)c1cccc2cn(-c3ccc([C@@H]4CCCNC4)cc3)nc12` [Niraparib (MK-4827)] was 4.387%.
`COC(=O)C1=C(C)NC(C)=C(C(=O)OCC(C)C)C1c1ccccc1[N+](=O)[O-]` (stereo not shown) [Nisoldipine]: the inhibition at 100 µM turned out to be 16.9%.
On to `CC(=O)Oc1ccccc1C(=O)Nc1ncc([N+](=O)[O-])s1` [Nitazoxanide], for which the inhibition at 100 µM is 0%.
As for `O=C1CCCC(=O)C1C(=O)c1ccc(C(F)(F)F)cc1[N+](=O)[O-]` [Nitisinone], the inhibition at 100 µM stood at 2.19%.
